Results on five compounds are retold here after article PMC12020424, “Identification and Validation of Cyclic Peptides with Mucin-Selective, Location-Specific Binding in the Gastrointestinal Tract” (ACS Nano, 2025).

The target in one test is MUC5AC (Homo sapiens, UniProt P98088). Put plainly: Biolayer interferometry binding kinetics, MUC5AC. The note with it: for Kd: PBS-HCl pH 1.82, koff/kon, read-out: dissociation constant kd. The method, then:
(§1) Binding kinetics for the successful mucin-binding hits were measured using biolayer interferometry (BLI).[73] In BLI, a protein target is immobilized on the surface of a biosensor, creating a thin optical layer. These coated sensors are then exposed to a solution of the ligand (in this case, the small molecule and peptide hits), allowing the ligand to associate and dissociate with the protein target. This association/dissociation behavior changes the thickness of the optical layer, and the instrument correlates this change in thickness with binding and desorption. By testing different concentrations of the ligand, the kinetic rate constants and dissociation constant (kd) can be measured by fitting the resulting binding curves according to a binding model.[73]
(§2) For the analysis of mucin-binding kinetics, mucins MUC2 and MUC5AC were used as the protein targets, and the “hits” were used as the ligands of interest. Mucins were biotinylated and suspended in buffers with different pH levels (MUC2 in PBS with pH 7.2 and PBS-HCl with pH 3.35, MUC5AC in PBS-HCl with pH 1.82) that mimic the pH of the normal small intestine,[74] the small intestine during inflammatory bowel disease,[75] and the normal stomach,[76] respectively. Hits were dissolved in the same buffer to minimize the optical differences among the buffer, mucin solution, and analyte solution. BLI was carried out on an Octet RED96 platform in five steps. First, a baseline step of 60 s was carried out. Then, biotinylated mucins were immobilized onto the surface of a streptavidin sensor during a loading step of 300 s. Next, the loaded tips were allowed to re-equilibrate in another baseline step for 60 s. Following that, the loaded tips were allowed to incubate in a solution of analyte (an association step) for 300 s; this allowed the hits to interact with the mucin, changing the thickness of the optical layer and generating a response from the optical measurement. Finally, the tips were moved to buffer wells, and the hits were allowed to dissociate from the mucin for 300 s. Data were analyzed, and ligand-only and hit-only controls were used as references to properly characterize the binding performance of the hits.
(§3) Binding of the hits to the mucins generally follows one of two different mechanisms. The first is a 1:1 bimolecular model in which the molecule binds to a specific spot on the mucin. The reaction can, therefore, be described using the following model:[77] [drawing 3]
(§4) In this model, kon represents the rate of association of the hit to the mucin, while koff represents the rate of dissociation of the molecule from the molecule-mucin complex. The dissociation constant is calculated as the ratio of these two rate constants.
(§5) The second model is a 2:1 heterogeneous model, in which the molecule binds at two locations on the mucin (each with its own kinetic rate constants and dissociation constant).[78] These reactions are described using the following model: [drawing 4]
(§6) The rate constants for each interaction are equivalent to those of the single interaction present in the 1:1 model, while each interaction has its own dissociation constant. This was calculated similarly to the 1:1 model.

The target of another test is MUC2 (Homo sapiens, UniProt Q02817). Put plainly: Biolayer interferometry binding kinetics, MUC2. The note with it: Octet RED96, biotinylated MUC2 on streptavidin sensor; for Kd: PBS pH 7.2, koff/kon, read-out: dissociation constant kd; for kon: PBS pH 7.2, association 300 s, dissociation 300 s. The method, then:
as §1, §2, §3, §4, §5, §6

Test [1] concerns MUC5AC-containing stomach tissue. In words: Ex vivo fluorescent binding to stomach tissue. Conditions: MUC5AC-selective peptides to stomach, scaled between free AF647 (0) and WGA-AF647 (1), mean across trials n = 3. On the set-up: species or system porcine. An excerpt:
(§7) After identifying the peptide hits for each mucin, we tested their binding in an ex vivo setting (Figure S1), evaluating their interaction with mucin-containing porcine tissue and semiquantitatively representing it through fluorescent imaging (Figure 3a). The cyclic peptides were synthesized and conjugated to a fluorophore, Alexa Fluor 647 (AF647), at the N-terminus to allow fluorescent imaging to be used to semiquantitatively measure the peptides’ ex vivo tissue binding, compared to free AF647 and AF647 conjugated to wheat germ agglutinin (WGA), a known lectin for glycoproteins.[40] […] Porcine GI tissue was used due to its similarity in mucin expression compared to human GI tissue and its capacity to source large surface areas of tissue for experiments.[41],[42] Representative IVIS images are shown in Figure 3b-e, where the first four columns represent the four identified peptides (M2.1–M2.4 in Figure 3b,c, M5.1–M5.4 in Figure 3d,e), the fifth column represents WGA-AF647, and the sixth column represents AF647. The “score” results for the peptide ligands are presented in Figure 3f,g for the mucins of interest, with Tables S2–S5 and Figure S3 detailing results for the other tissues (the equation for calculating the “score” is found in the Materials and Methodssection). […] We also examined selectivity by incubating peptides on nontarget tissues. Figure 3h,i depicts the “selectivity” results for the MUC2-selective and MUC5AC-selective peptides, respectively. Selectivity was calculated by determining the ratio of the “score” for a particular mucin to the sum of the “scores” for all mucins (see the Materials and Methods section for the equation used).
The top-performing hits from phage display were tested on ex vivo segments of porcine mucin-containing tissues (jejunal, stomach, and esophageal tissues) obtained from local abattoirs or laboratory-maintained pigs. Tissue was used either immediately after acquisition or after storage at −80 °C; tissue was used at most 1 week after acquisition and storage at −80 °C. After acquisition and equilibration to room temperature, the tissue was washed twice with 25 mL (each) of cold 1× PBS to remove undigested food and other debris. After washing and cleaning, the tissue was mounted between two magnetic plates with holes corresponding to a 48-well plate, as previously described,[72] such that the luminal side of the tissue was facing up (Figure S1). After the tissue was mounted, the amount of peptide/protein corresponding to 40 μg of AF647 was suspended in 200 μL of 1× PBS and added to the wells created by the magnetic plates. This was done 3× for each formulation to perform the experiment in triplicate. In addition, plain 1× PBS was added to one well to serve as the background measurement. […] After washing was complete, fluorescence imaging was performed using an IVIS Spectrum fluorescent imaging system (PerkinElmer), with an automatically calculated exposure time (usually ∼1 s), a 20 cm × 20 cm field of view, and an excitation/emission of 640/680 nm, respectively. The imaging results were analyzed using Living Image software to calculate the total fluorescence intensity for each well, and the results for each hit or control were averaged across different wells. […]
(§8) To better account for tissue-to-tissue variability, the results for each trial were reported as scores rather than using the raw fluorescence intensity. […]

Test [2] concerns MUC2-containing intestinal tissue (jejunal). Put plainly: Ex vivo fluorescent binding to small intestine tissue. On the set-up: species or system porcine. The note with it: MUC2-selective peptides to small intestine, scaled between free AF647 (0) and WGA-AF647 (1), mean across trials n = 3.
From the text: as §7
The top-performing hits from phage display were tested on ex vivo segments of porcine mucin-containing tissues (jejunal, stomach, and esophageal tissues) obtained from local abattoirs or laboratory-maintained pigs. Tissue was used either immediately after acquisition or after storage at −80 °C; tissue was used at most 1 week after acquisition and storage at −80 °C. After acquisition and equilibration to room temperature, the tissue was washed twice with 25 mL (each) of cold 1× PBS to remove undigested food and other debris. After washing and cleaning, the tissue was mounted between two magnetic plates with holes corresponding to a 48-well plate, as previously described,[72] such that the luminal side of the tissue was facing up (Figure S1). After the tissue was mounted, the amount of peptide/protein corresponding to 40 μg of AF647 was suspended in 200 μL of 1× PBS and added to the wells created by the magnetic plates. This was done 3× for each formulation to perform the experiment in triplicate. In addition, plain 1× PBS was added to one well to serve as the background measurement. After the peptides were added, the plate setup was covered with aluminum foil and allowed to incubate for 1 h at room temperature with gentle agitation (50 rpm). After incubation, the nonbinding peptides were removed by pouring out the solutions onto a clean paper towel, and the setup was washed three times by adding 200 μL of 1× PBS to each well and gently agitating the setup for 30 s before removing the washing solution. After washing was complete, fluorescence imaging was performed using an IVIS Spectrum fluorescent imaging system (PerkinElmer), with an automatically calculated exposure time (usually ∼1 s), a 20 cm × 20 cm field of view, and an excitation/emission of 640/680 nm, respectively. The imaging results were analyzed using Living Image software to calculate the total fluorescence intensity for each well, and the results for each hit or control were averaged across different wells. The negative control used was unconjugated AF647, while the positive control was WGA-AF647, since WGA is a known lectin that binds glycoproteins.
as §8

The mark [3] stands for this setting: BLI, Octet RED96, biotinylated MUC5AC on streptavidin sensor.

A word on the Kd: it is the concentration at which binding is half-saturated. The kon is the rate constant with which the complex forms.

Values joined by “and” are separate entries in the source; they are usually repeats but may differ in a detail not shown here. Identical values can stand only once. Like-named read-outs stand apart in the source and are kept apart here. Bridge positions count the residues as written; N and C are the ends. Peptide text beside a SMILES is read from it.

For `C[C@@H]1NC(=O)[C@H](CCCNC(=N)N)NC(=O)[C@H](CC(=O)O)NC(=O)[C@@H]2CCCN2C(=O)[C@H](CCCNC(=N)N)NC(=O)CNC(=O)[C@H](CC(=O)O)NC(=O)[C@@H](N)CSSC[C@@H](C(=O)O)NC1=O` [Peptide M2.3] (H-CDGRPDRAC-OH; disulfide 1-9), the figures for the Kd at MUC5AC (setting [3]) and on MUC2 (BLI) were 65.4 nM and 7.11 nM, respectively.
Turning to `CC(C)C[C@@H]1NC(=O)[C@H](CO)NC(=O)[C@H](CO)NC(=O)[C@H](C)NC(=O)[C@@H](N)CSSC[C@@H](C(=O)O)NC(=O)[C@H](CCCNC(=N)N)NC(=O)[C@H](C(C)C)NC(=O)[C@H](CO)NC1=O` [Peptide M2.4] (H-CASSLSVRC-OH; disulfide 1-9), the kon at MUC5AC (pH 1.82, BLI, Octet RED96, biotinylated MUC5AC on streptavidin sensor, PBS-HCl pH 1.82, association 300 s, dissociation 300 s) came to 29500 M⁻¹ s⁻¹; at MUC2 (pH 7.2, BLI, read-out: kon), 57700 M⁻¹ s⁻¹. Further, the Kd on MUC2 (BLI) came out at 112 nM.
As to `CC[C@H](C)[C@@H]1NC(=O)[C@@H]2CCCN2C(=O)CNC(=O)[C@@H](N)CSSC[C@@H](C(=O)O)NC(=O)[C@H](CC(C)C)NC(=O)[C@H](C)NC(=O)[C@H]([C@@H](C)O)NC(=O)[C@H](Cc2ccc(O)cc2)NC1=O` [Peptide M5.2] (H-CGPIYTALC-OH; disulfide 1-9), the “kd for MUC5AC binding compared with MUC2 binding (stronger)” value at MUC5AC (BLI, MUC5AC pH 1.82 vs MUC2) is reported as 2 orders of magnitude. Also, the Kd on MUC5AC (setting [3]) came out at 7.88 nM; at MUC2 (BLI) it was 112 nM.
With `CSCC[C@@H]1NC(=O)CNC(=O)[C@H](CCSC)NC(=O)[C@H]([C@@H](C)O)NC(=O)[C@H](CC(C)C)NC(=O)[C@H](C)NC(=O)[C@H]([C@@H](C)O)NC(=O)[C@@H](N)CSSC[C@@H](C(=O)O)NC1=O` [Peptide M5.3] (H-CTALTMGMC-OH; disulfide 1-9), the Kd at MUC5AC (setting [3]) came to 1.54 nM. Besides, on MUC2 (BLI), the kon is 6.33 × 10^4 M^–1s^–1 and ~10^4 M^–1s^–1.
In the case of “Alexa Fluor 647 [Free dye, reference compound]”, the “Overall nanoparticle “score”” value in test [1] and in test [2] was 0 each time.
